System: NCI-H23 complex spheroids with HUVEC/MSC, viability
Test: Anticancer human tumor NCI-H23 cell line growth inhibition [RAS];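 also: spheroids exposed to compound for 7 days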;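 as to viability, T/C: 100% = DMSO vehicle control viability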
Conditions: for IC50: curve of first compound; for viability, T/C: stronger effect = lower value
How it was run: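 Tumour cells grown as complex spheroids with HUVEC endothelial cells and mesenchymal stem cells, treated with RAS pathway inhibitor combinations. Each agent spans half-log steps from near clinical Cmax, or 10 microM where Cmax is unknown.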

[1] = second compound 0.000949 µM, first compound 0.0316 µM
[2] = second compound 0.000949 µM, first compound 0.1 µM
[3] = second compound 0.000949 µM, first compound 0.316 µM
[4] = second compound 0.000949 µM, first compound 1 µM
[5] = second compound 0.000949 µM, first compound 3.16 µM
[6] = second compound 0.000949 µM, first compound 10 µM
[7] = second compound 0.003 µM, first compound 0.0316 µM
[8] = second compound 0.003 µM, first compound 0.1 µM
[9] = second compound 0.003 µM, first compound 0.316 µM
[10] = second compound 0.003 µM, first compound 1 µM
[11] = second compound 0.003 µM, first compound 3.16 µM
[12] = second compound 0.003 µM, first compound 10 µM
[13] = second compound 0.00949 µM, first compound 0.0316 µM
[14] = second compound 0.00949 µM, first compound 0.1 µM
[15] = second compound 0.00949 µM, first compound 0.316 µM
[16] = second compound 0.00949 µM, first compound 1 µM
[17] = second compound 0.00949 µM, first compound 3.16 µM
[18] = second compound 0.00949 µM, first compound 10 µM
[19] = second compound 0.03 µM, first compound 0.0316 µM
[20] = second compound 0.03 µM, first compound 0.1 µM
[21] = second compound 0.03 µM, first compound 0.316 µM
[22] = second compound 0.03 µM, first compound 1 µM
[23] = second compound 0.03 µM, first compound 3.16 µM
[24] = second compound 0.03 µM, first compound 10 µM
[25] = second compound 0.0949 µM, first compound 0.0316 µM
[26] = second compound 0.0949 µM, first compound 0.1 µM
[27] = second compound 0.0949 µM, first compound 0.316 µM
[28] = second compound 0.0949 µM, first compound 1 µM
[29] = second compound 0.0949 µM, first compound 3.16 µM
[30] = second compound 0.0949 µM, first compound 10 µM
[31] = second compound 0.3 µM, first compound 0.0316 µM
[32] = second compound 0.3 µM, first compound 0.1 µM
[33] = second compound 0.3 µM, first compound 0.316 µM
[34] = second compound 0.3 µM, first compound 1 µM
[35] = second compound 0.3 µM, first compound 3.16 µM
[36] = second compound 0.3 µM, first compound 10 µM

`CC1(O)CCCC1n1c(=O)c(C(F)F)cc2cnc(NC3CCN(S(C)(=O)=O)CC3)nc21` (stereo unspecified) + CCn1c(-c2cc(N3CCN(C)CC3)cnc2C(C)OC)c2c3cc(ccc31)-c1csc(n1)CC(NC(=O)C1CC1C)C(=O)N1CCCC(N1)C(=O)OCC(C)(C)C2 showed an IC50 (second compound 0.000949 µM) of under 31.6 nM, an IC50 (second compound 0.003 µM) of under 31.6 nM and an IC50 (second compound 0.00949 µM) of under 31.6 nM. For the same molecule, the IC50 (second compound 0.03 µM) was under 31.6 nM, the IC50 (second compound 0.0949 µM) was under 31.6 nM and the IC50 (second compound 0.3 µM) was under 31.6 nM. For the same molecule, the viability, T/C [1] was 33.9%, the viability, T/C [2] was 26.3% and the viability, T/C [3] was 17.7%. The viability, T/C [4] was 25.8%, the viability, T/C [5] was 25.5% and the viability, T/C [6] was 2.68%. For the same molecule, the viability, T/C [7] was 31.6%, the viability, T/C [8] was 18.7% and the viability, T/C [9] was 15.9%. For the same molecule, the viability, T/C [10] was 19.1%, the viability, T/C [11] was 24% and the viability, T/C [12] was 1.43%. It also gave a viability, T/C [13] of 32%, a viability, T/C [14] of 15.7% and a viability, T/C [15] of 13.9%. The viability, T/C [16] was 17.6%, the viability, T/C [17] was 17.9% and the viability, T/C [18] was 1.78%. For the same molecule, the viability, T/C [19] was 20.8%, the viability, T/C [20] was 18% and the viability, T/C [21] was 15%. The viability, T/C [22] was 17.1%, the viability, T/C [23] was 14.5% and the viability, T/C [24] was 2.47%. The viability, T/C [25] was 17.3%, the viability, T/C [26] was 15.4% and the viability, T/C [27] was 13.4%. It also gave a viability, T/C [28] of 14.1%, a viability, T/C [29] of 12.1% and a viability, T/C [30] of 2.66%. It also gave a viability, T/C [31] of 18.7%, a viability, T/C [32] of 14.8% and a viability, T/C [33] of 15.1%. For the same molecule, the viability, T/C [34] was 12.8%, the viability, T/C [35] was 11.8% and the viability, T/C [36] was 2.94%.

In the case of `CCC(CC)c1cc(NC2CCC(N)C2)n2nccc2n1` (stereo unspecified) + CCn1c(-c2cc(N3CCN(C)CC3)cnc2C(C)OC)c2c3cc(ccc31)-c1csc(n1)CC(NC(=O)C1CC1C)C(=O)N1CCCC(N1)C(=O)OCC(C)(C)C2, the IC50 (second compound 0.000949 µM) is reported as under 31.6 nM, the IC50 (second compound 0.003 µM) is reported as under 31.6 nM and the IC50 (second compound 0.00949 µM) is reported as under 31.6 nM. For the same molecule, the IC50 (second compound 0.03 µM) was under 31.6 nM, the IC50 (second compound 0.0949 µM) was under 31.6 nM and the IC50 (second compound 0.3 µM) was under 31.6 nM. For the same molecule, the viability, T/C [1] was 46.5%, the viability, T/C [2] was 50.7% and the viability, T/C [3] was 40.9%. For the same molecule, the viability, T/C [4] was 41.2%, the viability, T/C [5] was 2.33% and the viability, T/C [6] was 0.49%. It also gave a viability, T/C [7] of 37.7%, a viability, T/C [8] of 33.8% and a viability, T/C [9] of 34%. The viability, T/C [10] was 36.4%, the viability, T/C [11] was 2.67% and the viability, T/C [12] was 0.37%. The viability, T/C [13] was 36.3%, the viability, T/C [14] was 33.7% and the viability, T/C [15] was 34.2%. The viability, T/C [16] was 35.7%, the viability, T/C [17] was 1.63% and the viability, T/C [18] was 0.42%. It also gave a viability, T/C [19] of 30.1%, a viability, T/C [20] of 24.9% and a viability, T/C [21] of 31.1%. For the same molecule, the viability, T/C [22] was 28.3%, the viability, T/C [23] was 0.59% and the viability, T/C [24] was 0.54%. The viability, T/C [25] was 22.9%, the viability, T/C [26] was 23.2% and the viability, T/C [27] was 24.7%. For the same molecule, the viability, T/C [28] was 25.4%, the viability, T/C [29] was 0.87% and the viability, T/C [30] was 0.64%. It also gave a viability, T/C [31] of 19%, a viability, T/C [32] of 20.5% and a viability, T/C [33] of 22.4%. It also gave a viability, T/C [34] of 19%, a viability, T/C [35] of 1.45% and a viability, T/C [36] of 0.47%.

`CCN1CCN(Cc2ccc(Nc3ncc(F)c(-c4cc(F)c5nc(C)n(C(C)C)c5c4)n3)nc2)CC1` + CCn1c(-c2cc(N3CCN(C)CC3)cnc2C(C)OC)c2c3cc(ccc31)-c1csc(n1)CC(NC(=O)C1CC1C)C(=O)N1CCCC(N1)C(=O)OCC(C)(C)C2 gave an IC50 (second compound 0.000949 µM) of under 3.16 nM, an IC50 (second compound 0.003 µM) of under 3.16 nM and an IC50 (second compound 0.00949 µM) of under 3.16 nM. The IC50 (second compound 0.03 µM) was under 3.16 nM, the IC50 (second compound 0.0949 µM) was under 3.16 nM and the IC50 (second compound 0.3 µM) was under 3.16 nM. It also gave a viability, T/C (second compound 0.000949 µM, first compound 0.00316 µM) of 37.3%, a viability, T/C (second compound 0.000949 µM, first compound 0.01 µM) of 32.9% and a viability, T/C [1] of 18.3%. The viability, T/C [2] was 20.1%, the viability, T/C [3] was 17.9% and the viability, T/C [4] was 12.9%. For the same molecule, the viability, T/C (second compound 0.003 µM, first compound 0.00316 µM) was 29.6%, the viability, T/C (second compound 0.003 µM, first compound 0.01 µM) was 22.1% and the viability, T/C [7] was 16%. The viability, T/C [8] was 16.8%, the viability, T/C [9] was 14.3% and the viability, T/C [10] was 12.3%. The viability, T/C (second compound 0.00949 µM, first compound 0.00316 µM) was 29%, the viability, T/C (second compound 0.00949 µM, first compound 0.01 µM) was 21.5% and the viability, T/C [13] was 17.2%. The viability, T/C [14] was 16.2%, the viability, T/C [15] was 12.9% and the viability, T/C [16] was 10.4%. It also gave a viability, T/C (second compound 0.03 µM, first compound 0.00316 µM) of 23.1%, a viability, T/C (second compound 0.03 µM, first compound 0.01 µM) of 17.9% and a viability, T/C [19] of 18.9%. The viability, T/C [20] was 14%, the viability, T/C [21] was 9.41% and the viability, T/C [22] was 14.5%. For the same molecule, the viability, T/C (second compound 0.0949 µM, first compound 0.00316 µM) was 16.1%, the viability, T/C (second compound 0.0949 µM, first compound 0.01 µM) was 16% and the viability, T/C [25] was 13.7%. It also gave a viability, T/C [26] of 10.7%, a viability, T/C [27] of 10.1% and a viability, T/C [28] of 13.1%. The viability, T/C (second compound 0.3 µM, first compound 0.00316 µM) was 14.8%, the viability, T/C (second compound 0.3 µM, first compound 0.01 µM) was 16.5% and the viability, T/C [31] was 12.8%. It also gave a viability, T/C [32] of 10.4%, a viability, T/C [33] of 10.6% and a viability, T/C [34] of 12.6%.

— PubChem BioAssay AID2060885 (Molecular Pharmacology Branch, DTP, NCI, 2025)
